Test results: US11033629B2, “Oral formulations of kappa opioid receptor agonists” (Cara Therapeutics, Inc., priority 2018, dated 2021)

Experiment: Intravenous delivery of CR845 to canines (composite IV data from five studies, reference for bioavailability)
Details: dog, in vivo, average dose 0.029±0.029 mg/kg, ten kilogram dogs, thirty-six canines
Experimental: Each capsule of prototype formulation 1 contained: 1.6 mg spray dried CR845 in 90% Miglyol 812, 10% sodium caprate. Each capsule of prototype formulation 2 contained: 1.6 mg crystallized CR845 in 90% Miglyol 812, 10% sodium caprate. Each capsule of prototype formulation 3 contained: 1.6 mg spray dried CR845 in 90% Miglyol 812, 10% capric acid. Each capsule of prototype formulation 4 contained: 1.6 mg spray dried CR845 in 70% Miglyol 812 in 30% capric acid. Bioavailability (% f) is expressed as a percent of CR845 observed (calculated from the area under the curve: AUC) as compared with the total CR845 AUC observed after intravenous delivery of the same dose. Composite IV data from five separate studies with thirty-six canines was averaged and used for bioavailability calculations. […] The observed avg.

Structure (SMILES): CC(C)C[C@@H](NC(=O)[C@@H](Cc1ccccc1)NC(=O)[C@H](N)Cc1ccccc1)C(=O)N[C@H](CCCCN)C(=O)N1CCC(N)(C(=O)O)CC1 [CR845, D-Phe-D-Phe-D-Leu-D-Lys-[ω(4-aminopiperidine-4-carboxylic acid)]-OH]
- Cmax: 163 ± 39.2 ng/mL
